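Tested at 5 concentrations; 48 h exposure; 96-well plates; endpoints linearly interpolated, else capped at highest concentration. GI50: concentration for 50% inhibition of growth. The concentration for full growth arrest is given as TGI.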
Legend:
Experiment in all cases: DTP human tumour cell line panel, 48 h; in the data active = GI50 below about 0.43 µM; inactive = the rest
786-0 renal = tested on: 786-0 renal
A498 renal = tested on: A498 renal
A549 NSCLC = tested on: A549 NSCLC
ACHN renal = tested on: ACHN renal
BT-549 breast = tested on: BT-549 breast
CAKI-1 renal = tested on: CAKI-1 renal
CCRF-CEM leukemia = tested on: CCRF-CEM leukemia
COLO 205 colon = tested on: COLO 205 colon
DU-145 prostate = tested on: DU-145 prostate
EKVX NSCLC = tested on: EKVX NSCLC
HCC-2998 colon = tested on: HCC-2998 colon
HCT-116 colon = tested on: HCT-116 colon
HCT-15 colon = tested on: HCT-15 colon
HL-60(TB) leukemia = tested on: HL-60(TB) leukemia
HOP-62 NSCLC = tested on: HOP-62 NSCLC
HOP-92 NSCLC = tested on: HOP-92 NSCLC
HT29 colon = tested on: HT29 colon
K-562 leukemia = tested on: K-562 leukemia
KM12 colon = tested on: KM12 colon
LOX IMVI melanoma = tested on: LOX IMVI melanoma
M14 melanoma = tested on: M14 melanoma
MCF7 breast = tested on: MCF7 breast
MDA-MB-231 breast = tested on: MDA-MB-231 breast
MDA-MB-435 = tested on: MDA-MB-435
MOLT-4 leukemia = tested on: MOLT-4 leukemia
NCI-H226 lung = tested on: NCI-H226 lung
NCI-H23 lung = tested on: NCI-H23 lung
NCI-H460 lung = tested on: NCI-H460 lung
NCI/ADR-RES ovarian = tested on: NCI/ADR-RES ovarian
OVCAR-3 ovarian = tested on: OVCAR-3 ovarian
OVCAR-4 ovarian = tested on: OVCAR-4 ovarian
OVCAR-5 ovarian = tested on: OVCAR-5 ovarian
OVCAR-8 ovarian = tested on: OVCAR-8 ovarian
PC-3 prostate = tested on: PC-3 prostate
RXF 393 renal = tested on: RXF 393 renal
SF-268 CNS = tested on: SF-268 CNS
SF-295 CNS = tested on: SF-295 CNS
SF-539 CNS = tested on: SF-539 CNS
SK-MEL-2 melanoma = tested on: SK-MEL-2 melanoma
SK-MEL-28 melanoma = tested on: SK-MEL-28 melanoma
SK-MEL-5 melanoma = tested on: SK-MEL-5 melanoma
SK-OV-3 ovarian = tested on: SK-OV-3 ovarian
SN12C renal = tested on: SN12C renal
SNB-19 CNS = tested on: SNB-19 CNS
SNB-75 CNS = tested on: SNB-75 CNS
SR leukemia = tested on: SR leukemia
SW-620 colon = tested on: SW-620 colon
T-47D breast = tested on: T-47D breast
TK-10 renal = tested on: TK-10 renal
U251 CNS = tested on: U251 CNS
UACC-257 melanoma = tested on: UACC-257 melanoma
UACC-62 melanoma = tested on: UACC-62 melanoma

O=C(c1ccccc1)c1ccccc1C(=O)c1ccccc1
99.4 µM: TGI (HOP-92 NSCLC)
85.3 µM: TGI (HCC-2998 colon)
inactive: GI50 (786-0 renal) 50.6 µM | GI50 (A498 renal) 4.34 µM | GI50 (A549 NSCLC) 50 µM | GI50 (ACHN renal) 45.7 µM | GI50 (BT-549 breast) 32 µM | GI50 (CAKI-1 renal) 19.4 µM | GI50 (CCRF-CEM leukemia) 42.9 µM | GI50 (COLO 205 colon) 79.5 µM | GI50 (DU-145 prostate) 88.1 µM | GI50 (EKVX NSCLC) 28.6 µM | GI50 (HCC-2998 colon) 32.3 µM | GI50 (HCT-116 colon) 29.8 µM | GI50 (HCT-15 colon) 50 µM | GI50 (HL-60(TB) leukemia) 53.7 µM | GI50 (HOP-62 NSCLC) > 100 µM | GI50 (HOP-92 NSCLC) 16.4 µM | GI50 (HT29 colon) 45.3 µM | GI50 (K-562 leukemia) 41 µM | GI50 (KM12 colon) 36.2 µM | GI50 (LOX IMVI melanoma) 46 µM | GI50 (M14 melanoma) 31.9 µM | GI50 (MCF7 breast) 1760 nM | GI50 (MDA-MB-231 breast) 65.5 µM | GI50 (MDA-MB-435) 28.7 µM | GI50 (MOLT-4 leukemia) 32.7 µM | GI50 (NCI-H226 lung) 52.3 µM | GI50 (NCI-H23 lung) 34 µM | GI50 (NCI-H460 lung) 35.9 µM | GI50 (NCI/ADR-RES ovarian) 27.4 µM | GI50 (OVCAR-3 ovarian) 41 µM | GI50 (OVCAR-4 ovarian) 36.7 µM | GI50 (OVCAR-5 ovarian) > 100 µM | GI50 (OVCAR-8 ovarian) 34.5 µM | GI50 (PC-3 prostate) 37.7 µM | GI50 (RXF 393 renal) 47.8 µM | GI50 (SF-268 CNS) 63.4 µM | GI50 (SF-295 CNS) 31 µM | GI50 (SF-539 CNS) 77.5 µM | GI50 (SK-MEL-2 melanoma) 58.6 µM | GI50 (SK-MEL-28 melanoma) 30.9 µM | GI50 (SK-MEL-5 melanoma) 22.5 µM | GI50 (SK-OV-3 ovarian) 50.3 µM | GI50 (SN12C renal) > 100 µM | GI50 (SNB-19 CNS) > 100 µM | GI50 (SNB-75 CNS) 45.5 µM | GI50 (SR leukemia) 41.7 µM | GI50 (SW-620 colon) 55.8 µM | GI50 (T-47D breast) 47.2 µM | GI50 (TK-10 renal) 32.8 µM | GI50 (U251 CNS) 39.4 µM | GI50 (UACC-257 melanoma) 40.5 µM | GI50 (UACC-62 melanoma) 29.7 µM
10.9 µM: TGI (MCF7 breast)
> 100 µM: TGI (786-0 renal) | TGI (A498 renal) | TGI (A549 NSCLC) | TGI (ACHN renal) | TGI (BT-549 breast) | TGI (CCRF-CEM leukemia) | TGI (COLO 205 colon) | TGI (DU-145 prostate) | TGI (EKVX NSCLC) | TGI (HCT-116 colon) | TGI (HCT-15 colon) | TGI (HL-60(TB) leukemia) | TGI (HOP-62 NSCLC) | TGI (HT29 colon) | TGI (K-562 leukemia) | TGI (KM12 colon) | TGI (LOX IMVI melanoma) | TGI (M14 melanoma) | TGI (MDA-MB-231 breast) | TGI (MDA-MB-435) | TGI (MOLT-4 leukemia) | TGI (NCI-H226 lung) | TGI (NCI-H23 lung) | TGI (NCI-H460 lung) | TGI (NCI/ADR-RES ovarian) | TGI (OVCAR-3 ovarian) | TGI (OVCAR-4 ovarian) | TGI (OVCAR-5 ovarian) | TGI (OVCAR-8 ovarian) | TGI (PC-3 prostate) | TGI (RXF 393 renal) | TGI (SF-268 CNS) | TGI (SF-295 CNS) | TGI (SF-539 CNS) | TGI (SK-MEL-2 melanoma) | TGI (SK-MEL-28 melanoma) | TGI (SK-OV-3 ovarian) | TGI (SN12C renal) | TGI (SNB-19 CNS) | TGI (SNB-75 CNS) | TGI (SR leukemia) | TGI (SW-620 colon) | TGI (T-47D breast) | TGI (TK-10 renal) | TGI (U251 CNS) | TGI (UACC-257 melanoma) | TGI (UACC-62 melanoma)
67.1 µM: TGI (SK-MEL-5 melanoma)
70.6 µM: TGI (CAKI-1 renal)

Source: PubChem BioAssay (NCI)
